Test results as given in US20260109721A1, “IONIZABLE CATIONIC LIPIDS INCORPORATING SILICON: SYNTHESIS AND LNP FORMULATION” (priority 2023, published 2026).
Where two headings read alike, the source gives them in different places.

Key:
[1] = LNP size, PDI and zeta potential by Dynamic Light Scattering (Method A); type: physicochemical; details: LNP formulated with the lipid, DLS
Method in brief: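 Dynamic light scattering gave size, polydispersity and zeta potential of Method A nanoparticles. These were made from Luc mRNA in 10 mM citrate pH 4.0 combined with ethanol lipid master mix plus ionizable lipid on a dean-type chip (3:1, TFR around 12 ml/min).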

[2] = test system: HepG2 cell line; assay: In vitro toxicity study on HepG2 cell line (resazurin, viability and IC50); type: cell-based, human; details: for Viability (%) at different lipid concentrations, mean: HepG2 cells, 48 h post-treatment, relative to ethanol vehicle controls; for IC50: Homo sapiens, read-out: IC50 value, μM (on HepG2 cell)
Method in brief: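 Resazurin read-out (ex 530/em 580 nm, 5 h at 37 °C) measured lipid toxicity 48 h after dosing HepG2 cells (1000/well) at 6.25–800 μM. Viability was normalised to ethanol vehicle, and IC50 was derived from concentration-response curves.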

[3] = lipid toxicity, HepG2, 48 h post-treatment, resazurin, 6.25-800 μM

Row | Compound | PDI [1] | Size (nm) [1] | Zeta potential (mV) [1] | Viability (%) at different lipid concentrations, mean ([2]; 6.25 μM lipid, resazurin) | Viability (%) at different lipid concentrations, mean ([2]; 12.5 μM lipid, resazurin) | Viability (%) at different lipid concentrations, mean ([2]; 25 μM lipid, resazurin) | Viability (%) at different lipid concentrations, mean ([2]; 50 μM lipid, resazurin) | Viability (%) at different lipid concentrations, mean ([2]; 100 μM lipid, resazurin) | Viability (%) at different lipid concentrations, mean ([2]; 200 μM lipid, resazurin) | Viability (%) at different lipid concentrations, mean ([2]; 400 μM lipid, resazurin) | Viability (%) at different lipid concentrations, mean ([2]; 800 μM lipid, resazurin) | IC50 [2, 3] | IC50 ([2]; HepG2, 48 h)
1 | CCCCC/C=C\C/C=C\CCCCCCCCOC(CCCCCCC/C=C\C/C=C\CCCCC)O[Si](C)(C)OCCCCCCN(C)[C@H](CO)Cc1ccccc1 (stereo partly drawn) [Example 77, (2S,23Z,26Z)-2-benzyl-13-((8Z,11Z)-heptadeca-8,11-dien-1-yl)-3,11,11-trimethyl-10,12,14-trioxa-3-aza-11-siladotriaconta-23,26-dien-1-ol] | 0.05 | 90.59 nm | −10.95 mV | 96.2% | 99.9% | 101.0% | 103.7% | 100.6% | 100.5% | 101.1% | 73.8% | > 800 µM | 
2 | CCCCCCCC/C=C\CCCCCCCCOC(CCCCCCC/C=C\CCCCCCCC)O[Si](C)(C)OCCCCCCN(C)[C@H](CO)Cc1ccccc1 (stereo partly drawn) [Example 78, (2S,Z)-2-benzyl-13-((Z)-heptadec-8-en-1-yl)-3,11,11-trimethyl-10,12,14-trioxa-3-aza-11-siladotriacont-23-en-1-ol] | 0.10 | 92.14 nm | −19.77 mV | 92.0% | 101.6% | 101.5% | 102.9% | 101.9% | 100.8% | 56.4% | 1.6% | 414 µM | 
3 | CCCCC/C=C\C/C=C\CCCCCCCCOC(CCCCCCC/C=C\C/C=C\CCCCC)O[Si](C)(C)OCCCCCCN(C)C (stereo not drawn) [Example 79, (20Z,23Z)-10-((8Z,11Z)-heptadeca-8,11-dien-1-yl)-N,N,8,8-tetramethyl-7,9,11-trioxa-8-silanonacosa-20,23-dien-1-amine] | 0.09 | 102.1 nm | −2425 mV | 100.82% | 98.88% | 99.57% | 101.89% | 99.49% | 76.57% | 52.32% | 34.54% |  | 473 µM
4 | CCCCC/C=C\C/C=C\CCCCCCCCO[Si](C)(C)OC(CCCCCCC/C=C\C/C=C\CCCCC)OCCCN(C)C (stereo not drawn) [Example 80, (17Z,20Z)-5-((8Z,11Z)-heptadeca-8,11-dien-1-yl)-N,N,7,7-tetramethyl-4,6,8-trioxa-7-silahexacosa-17,20-dien-1-amine] | 0.11 | 90.19 nm | −26.51 mV | 98.8% | 98.68% | 98.64% | 99.05% | 96.68% | 69.13% | 0.79% | 0.71% |  | 223 µM
5 | CCCCCCCC/C=C\CCCCCCCCOC(=O)C(C)(C)CC(OCCCCCCCC/C=C\CCCCCCCC)O[Si](C)(C)OCCCCCCN(CCO)CCO (stereo not drawn) [Example 84, (Z)-octadec-9-en-1-yl 1-hydroxy-3-(2-hydroxyethyl)-11,11,15,15-tetramethyl-13-(((Z)-octadec-9-en-1-yl)oxy)-10,12-dioxa-3-aza-11-silahexadecan-16-oate] | 0.15 | 71.7 nm | −16.66 mV | 87.8% | 99.3% | 101.8% | 104.5% | 103.5% | 90.4% | 82.2% | 88.5% | > 800 µM | 
6 | CCCCCCCC/C=C\CCCCCCCCOC(=O)C(C)(C)CC(OCCCCCCCC/C=C\CCCCCCCC)O[Si](C)(C)OCCCCCCN1CCOCC1 (stereo not drawn) [Example 85, (Z)-octadec-9-en-1-yl 4-((dimethyl((6-morpholinohexyl)oxy)silyl)oxy)-2,2-dimethyl-4-(((Z)-octadec-9-en-1-yl)oxy)butanoate] | 0.1 | 96.37 nm | −14.54 mV | 97.0% | 101.0% | 101.4% | 102.1% | 101.5% | 101.9% | 103.2% | 80.1% | > 800 µM | 
7 | CCCCCCCC/C=C\CCCCCCCCOC(=O)C(C)(C)CC(OCCCCCCCC/C=C\CCCCCCCC)O[Si](C)(C)OCCCCCCN(CCCCO)CCCCO (stereo not drawn) [Example 86, (Z)-octadec-9-en-1-yl 18-hydroxy-14-(4-hydroxybutyl)-2,2,6,6-tetramethyl-4-(((Z)-octadec-9-en-1-yl)oxy)-5,7-dioxa-14-aza-6-silaoctadecanoate] | 0.25 | 109.7 nm | −13.69 mV | 95.4% | 107.0% | 108.7% | 105.4% | 95.4% | 77.2% | 57.1% | 42.8% | 564 µM | 
8 | CCCCCCCC/C=C\CCCCCCCCOC(=O)C(C)(C)CC(OCCCCCCCC/C=C\CCCCCCCC)O[Si](C)(C)OCCCCCCN1CCCCC1 (stereo not drawn) [Example 87, (Z)-octadec-9-en-1-yl 4-((dimethyl((6-(piperidin-1-yl)hexyl)oxy)silyl)oxy)-2,2-dimethyl-4-(((Z)-octadec-9-en-1-yl)oxy)butanoate] | 0.06 | 101.8 nm | −12.28 mV | 101.2% | 97.0% | 97.0% | 97.8% | 97.6% | 102.1% | 73.7% | 35.2% |  | 625 µM
